Source: patent publication US20250352458A1, “IMPROVEMENTS IN OR RELATING TO EXTRACTS” (Givaudan SA, priority 2020, published 2025)
Where “and” joins values, the source holds several entries; their conditions need not be identical. Equal entries are not always repeated.

Columns and labels:
hiPSC derived sebocytes = test: In vitro lipogenesis inhibition in sebocytes derived from iPS with three ethnicities; type: cell-based, human; conditions: 10 μM (RA10), each ethnicity, arachidonic acid induced
S. aureus (ATCC 33592) = test: MIC evaluation, optical density and percentage of inhibition; type: cell-based, Staphylococcus aureus
Source text: The minimum inhibitory concentration of the following active ingredients has been assessed: • Mangifera indica extract (in propanediol/water 75/25); • Vehicule (propanediol/water 75/25, expressed as Activolo3-75%); • “Pool Mangiferin” which is the pure molecule mangiferin at the same concentration in the Mangifera indica extract in propanediol/water 75/25. • “Pool Mangifera” with is the mix of the 4 molecules (mangiferin, maclurin-C-glucoside, irifluophenone-C-glucoside, gallotanin) at the same concentration in the Mangifera indica extract in propane-diol/water 75/25. S. aureus: The day before the experiment S. aureus (ATCC 33592) was plated and grown overnight at 37° C. Colonies were resuspended in 5 mL of TSB (Tryptic Soy Broth) to obtain a 0.5 McFarland D O (≈1.10^8 CFU/ml) (launch of culture at D-1). […] Concentrations are expressed in % (m/v). […] The diluted bacterial suspension was added to columns 2 to 12. RCB medium was added to column 1 as negative control. Optical density was determined, which correlates to the bacterial growth.

[1] = system: C. granulosum (ATCC 25564); test: as above; type: cell-based, Cutibacterium granulosum
Source text: (§1) The minimum inhibitory concentration of the following active ingredients has been assessed: • Mangifera indica extract (in propanediol/water 75/25); • Vehicule (propanediol/water 75/25, expressed as Activolo3-75%); • “Pool Mangiferin” which is the pure molecule mangiferin at the same concentration in the Mangifera indica extract in propanediol/water 75/25. • “Pool Mangifera” with is the mix of the 4 molecules (mangiferin, maclurin-C-glucoside, irifluophenone-C-glucoside, gallotanin) at the same concentration in the Mangifera indica extract in propane-diol/water 75/25. […] After two days, the bacterial concentration was adjusted in reinforced clostridial broth to obtain a solution at 1.106 CFU/ml (5.104 CFU/well). […] Concentrations are expressed in % (m/v). […] The diluted bacterial suspension was added to columns 2 to 12. RCB medium was added to column 1 as negative control. Optical density was determined, which correlates to the bacterial growth.

[2] = system: H. influenzae (ATCC 49766); test: as above; type: cell-based, Haemophilus influenza
Source text: The minimum inhibitory concentration of the following active ingredients has been assessed: • Mangifera indica extract (in propanediol/water 75/25); • Vehicule (propanediol/water 75/25, expressed as Activolo3-75%); • “Pool Mangiferin” which is the pure molecule mangiferin at the same concentration in the Mangifera indica extract in propanediol/water 75/25. • “Pool Mangifera” with is the mix of the 4 molecules (mangiferin, maclurin-C-glucoside, irifluophenone-C-glucoside, gallotanin) at the same concentration in the Mangifera indica extract in propane-diol/water 75/25.
H. influenzae (ATCC 49766) was cultured in Mueller Hinton broth as recommended by ATCC with 5% CO2. The Bacterial concentration was adjusted in Mueller Hinton broth to obtain a solution at 1.106 CFU/ml (5.104 CFU/well) (launch of culture at D-2). […] Two day later, the inhibition of H. influenzae was evaluated using Colony counter IUL instruments, flash and go model (reading at D2).
Concentrations are expressed in % (m/v).
The diluted bacterial suspension was added to columns 2 to 12. RCB medium was added to column 1 as negative control.
Optical density was determined, which correlates to the bacterial growth. Thereafter, an inhibition value (%) was determined for each condition using the following formula: […]
The percentage of inhibition must be higher or equal than 90% to reach the MIC.

[3] = system: Propionibacterium acnes (C. acnes) phylotype IA1 ATCC 6919; test: as above; type: cell-based
Source text: as §1

[4] = system: human sebaceous glands of skin explants; test: Ex vivo sebum quantification, lipids of sebaceous glands by GC/MS; type: cell-based
Experimental: Skin explants from lifting of 3 donors (average 56.7 years old) were treated in systemic every day during 5 days in presence of dihydrotestosterone (DHT) at 30UM to induce an increase of lipogenesis mimicking a high production of sebum condition (stimulated condition) or left untreated (control condition). In parallel, skin explants were treated in presence of 0.5% of dibenzoyle peroxide (POB, positive reference) or with the Mangifera indica extract at 1% and 2%.
The tissues are extracted with an aqueous cocktail overnight at 4° C. They are then treated to take off the epidermis. A specific technique is used to recover the glands attached to these hair shafts.
After rinsing in an isotonic medium, the epidermis and its appendages are transferred to a watch glass. The sebaceous glands attached to the hair shaft of hair follicles are cut at the level of the pilosebaceous canal and deposited against the walls of the recovery vials. The sebaceous glands are recovered after dilaceration of the epidermal fragments. The glands are collected in a batch of 10 units. A washing of the glands is then performed to eliminate any contaminations of non-sebaceous origin. The sebum is then extracted with an organic cocktail overnight at room temperature. From this lipid extract, purification was carried out in order to isolate the different classes of lipids.
The identification and quantification of the different classes of lipids was realized by GC/MS.
The results are expressed in percent of the stimulated control (Untreated+DHT 30 μM). Bonferroni test multi comparison was used to do statistical analysis with #p<0.1, *p<0.05, **p<0.01, ***p<0.001.

[5] = system: sebaceous glands of skin explants NativeSkin; test: Ex vivo sebaceous gland 3D volume in skin explants; type: cell-based, human; conditions: linoleic acid at 10% in Carbopol, 7 days, vs control
Experimental: The test was carried out on 4 skin explants NativeSkin® (average 40.75 years old) from pelvic area, a full-thickness skin biopsy embedded in a solid and nourishing matrix while its epidermal surface is left in contact with air. The skin biopsy is firmly embedded in the matrix that prevents any lateral diffusion of topically applied formulations. The skin explants were treated topically once a day for 7 days in presence of linoleic acid at 10% in Carbopol Ultrez 10 in order to stimulate the lipogenesis and mimic the condition of sebum excess (stimulated condition) or treated with Carbopol only (control condition). This induction mimics a high production of sebum. In parallel, skin explants were treated in presence of Mangifera indica extract at 1% and 2% formulated in Carbopol. After treatment, skin explants were fixed in formalin. After fixation, skin explants were cleared with methanol and a mix of Benzyl Benzoate and Benzyl Alcohol. All samples were observed by fluorescence light sheet microscopy (SPIM, homemade fabrication). Stack of images were taken per sample. 3D pictures of the glands were reconstructed and the size of each sebaceous gland was quantified using Amira® software. Results were represented with the mean volume of sebaceous gland +/−standard error to the mean. […] The results are expressed in percent of the stimulated control (10% linoleic acid). […]

[6] = system: human sebocyte cell line SEBO662AR; test: In vitro lipogenesis inhibition in human sebocytes cell line (Bodipy lipid labeling); type: cell-based
Experimental: The sebocytes were seeded in 96-well plates (50 000 cells/well) and cultured for 24 hours in culture medium. The medium was then removed and replaced by assay medium containing the tested products including Mangifera indica extract at 0.3%, Mangiferin alone or pooled active molecules (four main phytomarkers) at their equivalent dosage in the extract at 0.3%. In the control assay medium, no product was contained. The cells were preincubated for 4 hours at those conditions. Then, the lipogenic mix (containing vitamin C, vitamin D3, insulin and calcium, and no androgens) was added in order to mimic the condition of excess of sebum, and the cells were incubated for 7 days. At mid-term, i.e. after 3 days of incubation, half of the medium was removed and the treatments were renewed (including lipogenic mix stimulation). […]
At the end of the incubation, the cells were rinsed, fixed and permeabilized. […] The labeling was quantified by the measurement of the fluorescence intensity normalized to the total number of cells (Integration of numerical data with the Developer Toolbox 1.5, GE Healthcare software). Results were expressed as Fluorescence intensity normalized to the number of cells, % stimulated control and % inhibition. The fluorescence intensity was analyzed exclusively in the lipid droplets (image analysis program based on object segmentation). […]

[7] = Ciprofloxacin 16 10^−4 % (m/v), plate col. 8-12
[8] = DHT 30 μM stimulation vs untreated
[9] = POB at 0.5%, DHT stimulated, 5 days

SMILES: CC1=C(/C=C/C(C)=C/C=C/C(C)=C\C(=O)O)C(C)(C)CCC1 [13-cis-retinoic-acid]
- lipids production (hiPSC derived sebocytes): significant reduction

SMILES: O=C(O)c1cn(C2CC2)c2cc(N3CCNCC3)c(F)cc2c1=O [Ciprofloxacin, reference compound]
- Percentage of inhibition, S. aureus (S. aureus (ATCC 33592); [7]): 99.4%
- inhibition of S. aureus (S. aureus (ATCC 33592); Ciprofloxacin, text of Table 5b): 99%
- Percentage of inhibition, C. granulosum [1, 7]: 97.8% and 99.0% and 98.5%
- inhibition of C. granulosum ([1]; Ciprofloxacin, text of Table 4b): 99%
- Percentage of inhibition, H. influenza [2, 7]: 99.7% and 99.0%
- inhibition of H. influenza ([2]; Ciprofloxacin, text of Table 6b): 99%
- Percentage of inhibition, C. acnes [3, 7]: 99.3% and 98.8%
- inhibition of P. acnes (FIG. 9) ([3]; Ciprofloxacin from 1×10^−4%): 99%
- inhibition of P. acnes ([3]; Ciprofloxacin, text of Table 3b): 99%

SMILES: C[C@]12CCC(=O)C[C@@H]1CC[C@@H]1[C@@H]2CC[C@]2(C)[C@@H](O)CC[C@@H]12 [DHT, dihydrotestosterone]
- cholesterol content of sebum [4, 8]: no effect
- free fatty acids content of sebum [4, 8]: significant increase
- squalene content of sebum [4, 8]: significant increase
- triglycerides content of sebum [4, 8]: significant increase

SMILES: CCCCC/C=C\C/C=C\CCCCCCCC(=O)O [Linoleic acid, linoleic acid]
- change of 3D volume of sebaceous glands [5]: +37%

SMILES: O=c1c2cc(O)c(O)cc2oc2cc(O)c([C@@H]3O[C@H](CO)[C@@H](O)[C@H](O)[C@H]3O)c(O)c12 [Mangiferin]
- reduction of lipogenesis compared with lipogenic mix condition ([6]; Mangiferin at the same amount as available in the extracts): −22%

SMILES: CCCCCCCCCCCCCCOc1ccc(C(=O)OCC(=O)N(C)CC(=O)OCC)o1 [Olumacostat glasaretil, reference compound]
- reduction of lipid production compared with lipogenic mix condition ([6]; Olumacostat glasaretyl at 1 μm, 7 days): −37%

SMILES: O=C(OOC(=O)c1ccccc1)c1ccccc1 [POB, dibenzoyle peroxide]
- free fatty acids content of sebum [4, 9]: significant reduction
- squalene content of sebum [4, 9]: significant reduction
- triglycerides content of sebum [4, 9]: significant reduction
